Columns and labels:
human platelet MAO B = target: T1, human platelet MAO B (Homo sapiens, UniProt P27338); assay: Inhibition of platelet MAO B activity in vitro (human platelets); type: biochemical
T1 construct: The platelet pellet was resuspended in 5.0 ml of 0.1 M phosphate buffer with pH 7.4 by sonication; from tissue; host or cells: human blood platelets from normal volunteers, sonicated
T1 sequence (P27338 1-520): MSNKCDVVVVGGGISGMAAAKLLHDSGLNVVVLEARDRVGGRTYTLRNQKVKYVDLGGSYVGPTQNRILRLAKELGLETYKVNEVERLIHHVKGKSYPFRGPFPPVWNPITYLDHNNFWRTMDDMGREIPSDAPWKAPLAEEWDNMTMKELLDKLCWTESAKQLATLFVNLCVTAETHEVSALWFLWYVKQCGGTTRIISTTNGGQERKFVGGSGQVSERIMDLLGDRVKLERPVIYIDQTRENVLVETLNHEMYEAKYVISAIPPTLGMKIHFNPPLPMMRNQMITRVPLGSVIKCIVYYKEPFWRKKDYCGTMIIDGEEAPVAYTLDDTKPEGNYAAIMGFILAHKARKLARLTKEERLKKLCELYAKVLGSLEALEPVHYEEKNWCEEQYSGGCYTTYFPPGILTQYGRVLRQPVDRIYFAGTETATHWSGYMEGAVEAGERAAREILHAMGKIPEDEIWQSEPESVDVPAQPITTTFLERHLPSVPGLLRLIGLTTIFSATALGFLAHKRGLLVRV

rat brain MAO A = target: T2, rat brain MAO A (Rattus norvegicus, UniProt P21396); assay: MAO A activity in rat brain homogenate (14C-5HT substrate); type: biochemical; settings: substrate 14C-5HT; SD ±6.0
T2 construct: Human and rat caudate nuclei were homogenized in 0.32M sucrose; from tissue; host or cells: rat caudate nucleus homogenate (1%)
T2 sequence (P21396 1-526): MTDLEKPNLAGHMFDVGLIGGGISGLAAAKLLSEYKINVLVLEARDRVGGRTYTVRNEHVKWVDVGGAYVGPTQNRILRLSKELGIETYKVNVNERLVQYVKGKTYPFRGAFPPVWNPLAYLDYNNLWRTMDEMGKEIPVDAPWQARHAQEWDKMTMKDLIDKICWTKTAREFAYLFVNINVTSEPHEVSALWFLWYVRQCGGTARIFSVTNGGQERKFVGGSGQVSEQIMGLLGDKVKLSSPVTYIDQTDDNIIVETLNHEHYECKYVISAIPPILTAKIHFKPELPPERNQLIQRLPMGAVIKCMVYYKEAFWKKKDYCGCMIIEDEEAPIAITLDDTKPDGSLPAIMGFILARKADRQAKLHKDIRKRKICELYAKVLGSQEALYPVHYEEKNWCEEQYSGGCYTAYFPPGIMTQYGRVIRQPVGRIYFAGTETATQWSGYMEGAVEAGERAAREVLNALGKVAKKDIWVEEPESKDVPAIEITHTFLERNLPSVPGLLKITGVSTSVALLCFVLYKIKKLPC

rat brain MAO B = target: T3, rat brain MAO B (Rattus norvegicus, UniProt P19643); assay: MAO B activity in rat brain homogenate (14C-PEA substrate); type: biochemical
T3 construct: Human and rat caudate nuclei were homogenized in 0.32M sucrose; from tissue; host or cells: rat caudate nucleus homogenate (1%)
T3 sequence (P19643 1-520): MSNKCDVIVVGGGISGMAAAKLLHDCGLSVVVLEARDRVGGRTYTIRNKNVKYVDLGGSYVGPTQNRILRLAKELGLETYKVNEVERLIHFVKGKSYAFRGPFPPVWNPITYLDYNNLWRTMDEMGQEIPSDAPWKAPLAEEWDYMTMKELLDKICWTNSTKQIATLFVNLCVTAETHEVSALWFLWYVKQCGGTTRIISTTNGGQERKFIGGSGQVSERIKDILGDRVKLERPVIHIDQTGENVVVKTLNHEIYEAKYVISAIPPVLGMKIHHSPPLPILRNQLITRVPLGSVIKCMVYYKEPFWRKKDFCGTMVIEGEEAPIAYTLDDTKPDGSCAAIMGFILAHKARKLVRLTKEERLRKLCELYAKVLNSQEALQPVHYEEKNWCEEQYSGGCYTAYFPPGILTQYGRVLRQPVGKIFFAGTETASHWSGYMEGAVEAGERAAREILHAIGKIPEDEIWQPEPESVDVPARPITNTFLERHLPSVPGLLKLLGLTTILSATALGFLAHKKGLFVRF

human brain MAO A = target: T4, human brain MAO A (Homo sapiens, UniProt P21397); assay: MAO A activity in human brain homogenate (14C-5HT substrate); type: biochemical; settings: substrate 14C-5HT; SD 15.1
T4 construct: Human and rat caudate nuclei were homogenized in 0.32M sucrose; from tissue; host or cells: human caudate nucleus homogenate (1%)
T4 sequence (P21397 1-527): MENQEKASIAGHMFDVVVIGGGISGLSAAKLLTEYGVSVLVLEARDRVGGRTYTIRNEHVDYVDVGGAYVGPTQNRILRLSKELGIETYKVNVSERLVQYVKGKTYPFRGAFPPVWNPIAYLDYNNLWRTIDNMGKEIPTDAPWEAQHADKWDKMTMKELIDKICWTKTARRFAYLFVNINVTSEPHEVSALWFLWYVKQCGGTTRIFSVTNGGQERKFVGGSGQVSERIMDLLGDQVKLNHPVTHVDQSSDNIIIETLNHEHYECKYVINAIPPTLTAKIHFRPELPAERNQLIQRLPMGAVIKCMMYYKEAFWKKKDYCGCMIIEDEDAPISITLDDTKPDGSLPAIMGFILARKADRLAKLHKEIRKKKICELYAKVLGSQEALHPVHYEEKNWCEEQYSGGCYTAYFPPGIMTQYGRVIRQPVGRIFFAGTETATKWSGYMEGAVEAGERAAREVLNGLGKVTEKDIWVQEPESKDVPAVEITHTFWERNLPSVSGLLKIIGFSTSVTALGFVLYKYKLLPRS

human brain MAO B = target: T5, human brain MAO B (Homo sapiens, UniProt P27338); assay: MAO B activity in human brain homogenate (14C-PEA substrate); type: biochemical
T5 construct: Human and rat caudate nuclei were homogenized in 0.32M sucrose; from tissue; host or cells: human caudate nucleus homogenate (1%)
T5 sequence (P27338 1-520): T1 sequence (P27338 1-520)

[1] = test system: PEA induced stereotype behavior; assay: PEA induced stereotype behavior in rats; type: in vivo, rat
[2] = test system: PEA induced rotations in unilateral nigral lesioned rats; assay: Rotational behavior in unilateral substantia nigra 6-hydroxydopamine lesioned rats; type: in vivo, rat
[3] = test system: reserpine-induced akinesia; assay: PEA reversal of reserpine-induced akinesia in rats; type: in vivo, rat
[4] = test system: rat caudate nucleus (H^3-spiroperidol); assay: Displacement of H^3-spiroperidol from rat caudate nucleus; type: binding; settings: in vitro
[5] = test system: apomorphine and amphetamine induced locomotor changes; assay: Reversal of apomorphine and amphetamine induced locomotor changes in rats; type: in vivo, rat
Excerpt: Thereafter, an analysis of a PAPD was undertaken in vitro and in vivo beginning with antipsychotic (neuroleptic) and antidepressant activity. […] The two distinct forms of the enzyme have been designated as type A (serotonin metabolizing and clorgyline sensitive) and type […] metabolizing and clorgyline insensitive). Based on the stereochemical model, it was predicted that PAPD's effect on MAO type B would be greater than its effect on MAO type A. In vitro data has substantiated this prediction.

cancer patients = settings: cited from earlier work
[6] = PAPD (200 mg/kg by context), 1 h prior to PEA
[7] = clorgyline 5 mg/kg, 1 h prior to PEA
[8] = deprenyl 10 mg/kg, 1 h prior to PEA
[9] = pargyline 50 mg/kg, prior to PEA

O=C1CCC(NC(=O)Cc2ccccc2)C(=O)N1 (centres unmarked) [PAPD, 3-N-phenylacetylamino-2,6-piperidinedione]
maximal inhibition of platelet MAO B (human platelet MAO B; above 1.0 mM): 100% | inhibition of platelet MAO, relative potency (human platelet MAO B; compared with PAPD / pargyline): less potent than pargyline | IC50 (human platelet MAO B; platelets from 6 subjects, duplicate assays, SD 34.5×10^-6): 63.8 µM | inhibition with increasing concentration (human platelet MAO B; range of 0.1 to 1.0 mM): linear inhibition | platelet MAO inhibition (human platelet MAO B; standard platelet analysis): significant degree of MAO inhibition | IC50 (rat brain MAO A): 93.3 µM | inhibition of MAO type B versus MAO type A (rat brain MAO B; in vitro and in vivo analyses, summary): inhibition of MAO type B greater than that for MAO type A | selectivity: concentrations inhibiting MAO B compared with MAO A (rat brain MAO B; rat brain): 10 times less | IC50 (rat brain MAO B; substrate 14C-PEA, SD ±2.1): 8 µM | IC50 (human brain MAO A): 139 µM | selectivity for type B MAO (human brain MAO B; human brain tissue): five times more selective | IC50 (human brain MAO B; substrate 14C-PEA, PAPD SD 3.7): 19.9 µM | duration of stereotype behavior ([1]; 4 and 24 hours after PAPD (both groups)): 30 min | animals displaying forepaw padding/sniffing/headweaving ([1]; 4 hours after PAPD): 50% | animals displaying forepaw padding/sniffing/headweaving ([1]; 24 hours after PAPD): 66% | effect on PEA behavior ([1]; PAPD 50 and 100 mg/kg pretreatment): no effects on PEA behavior were noticed | animals with forepaw padding with continuous sniffing as well as headweaving ([1]; PAPD 200 and 400 mg/kg): 100% | duration of stereotype behavior ([1]; PAPD 200 and 400 mg/kg): 45 to 50 min | other stereotype behavior ([1]; PAPD 200 and 400 mg/kg): headbobbing | animals with forepaw padding with continuous sniffing as well as headweaving ([1]; PAPD one and two hours prior to PEA): 100% | duration of stereotype behavior ([1]; PAPD one hour prior to PEA): 45 min | duration of stereotype behavior ([1]; PAPD two hours prior to PEA): 55 min | number and duration of PEA rotations ([2]; PAPD 200 mg/kg, 1 h before PEA): increased the number and duration of PEA rotations | number or duration of PEA rotations ([2]; PAPD 50, 100 and 150 mg/kg, 1 h before PEA): did not affect the number or duration of PEA rotations | effect on duration of PEA's reversal of akinesia ([3]; PAPD 200 mg/kg, 1 h prior to PEA): potentiated the duration of PEA's reversal of akinesia | effect on reversal induced by PEA ([3]; PAPD 50 and 100 mg/kg, 1 h prior to PEA): antagonized the reversal induced by PEA | duration of activity with increased locomotion [3, 6]: 50 min | latency to reversal of akinesia [3, 6]: less than five minutes | serotonin behaviors ([3]; PAPD (200 mg/kg by context), interspersed with locomotor activity): headweaving and tremors | displacement of H^3-spiroperidol [4]: inability to displace H^3 -spiroperidol from rat caudate nucleus | reversal of apomorphine and amphetamine induced locomotor changes [5]: inability to reverse apomorphine and amphetamine induced locomotor changes in rats | toxic effects (cancer patients; human, in vivo): lack of toxic effects | mood (cancer patients; some cancer patients): elevation of mood | need for analgesia (cancer patients; some cancer patients): diminished need for analgesia

NCCc1ccccc1 [PEA, phenylethylamine]
stereotype behavior ([1]; PEA 50 mg/kg alone): no stereotype behavior was observed | duration of rotations ([2]; PEA 50 mg/kg alone): 30 min | ipsilateral turning ([2]; rat, in vivo): induced ipsilateral turning | duration of activity / reversal of akinesia ([3]; PEA 50 mg/kg i.p. alone): 30 min | latency to reversal of akinesia ([3]; PEA 50 mg/kg i.p. alone, reserpine 10 mg/kg i.p.): less than five minutes

C#CCN(C)CCCOc1ccc(Cl)cc1Cl [clorgyline, reference compound]
forepaw padding syndrome ([1]; clorgyline 5 mg/kg): did not produce this syndrome | other stereotype behavior ([1]; clorgyline 5 mg/kg): stereotyped headbobbing | animals with forepaw padding, sniffing, headweaving and retropulsion ([1]; clorgyline 10 mg/kg, 1 h prior to PEA): 100% | duration of stereotype behavior ([1]; clorgyline, both doses (5 and 10 mg/kg)): 30 min | activity compared with PEA control animals [3, 7]: not as active as PEA control animals | duration of behavior [3, 7]: 45 min | latency to reversal of akinesia [3, 7]: less than five minutes | serotonin type behavior [3, 7]: splayed hind legs, myoclonic jerks and headweaving

C#CCN(C)C(C)Cc1ccccc1 (centres unmarked) [deprenyl, reference compound]
animals with forepaw padding with continuous sniffing and headweaving ([1]; deprenyl 5 mg/kg, 1 h prior to PEA): 50% | animals with forepaw padding with continuous sniffing and headweaving [1, 8]: 100% | duration of stereotype behavior ([1]; deprenyl, 1 h prior to PEA): 60 min | other stereotype behavior ([1]; deprenyl, 1 h prior to PEA): no other stereotype behavior observed | duration of PEA rotations [2, 8]: increased the duration of PEA rotations | number of ipsilateral turns induced by PEA ([2]; rat, in vivo): doubled the number of ipsilateral turns

C#CCN(C)Cc1ccccc1 [pargyline]
duration of activity with increased locomotion [3, 9]: 45 min | latency to reversal of akinesia [3, 9]: less than five minutes

NNCCc1ccccc1 [phenelzine, reference compound]
potency relative to PAPD (human brain MAO B): two orders of magnitude more potent than PAPD

— US4705796A, “Use of 3-N-phenylacetylamino-2,6-piperidinedione for treatment of neuropsychiatric disorders” (priority 1986, dated 1987)
